Measured values taken from US12552775B2, “Compounds and uses thereof” (Foghorn Therapeutics Inc., priority 2020, dated 2026).

What was measured:
[1] = biological target: T1, HiBit-BRM fusion protein (Homo sapiens, UniProt P51531); assay: HiBiT-BRM cell-based degradation assay (Nano-Glo HiBiT Lytic Detection, 24 h); conditions: stable HeLa cell line expressing HiBiT-BRM, top dose 30 μM
T1 construct: expressed in transfected cells
Method in brief: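 Luminescence from HiBiT/LgBiT complementation after lysis reports remaining HiBiT-BRM in stable HeLa cells exposed to compound for 24 h. Dosing used 3-fold serial dilutions, 10 points, 30 μM top final concentration. DMSO and a 2 μM BRM/BRG1 degrader standard defined 0% and 100% degradation.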

[2] = biological target: T2, HiBit-BRG1 fusion protein (Homo sapiens, UniProt P51532); assay: HiBiT-BRG1 cell-based degradation assay (Nano-Glo HiBiT Lytic Detection, 24 h); conditions: stable HeLa cell line expressing HiBit-BRG1 and LgBit, top dose 30 μM, read-out: BRG1 HiBit Degradation Maximum (%)
T2 construct: expressed in transfected cells
T2 sequence (P51532 whole entry, the tested form may be a part): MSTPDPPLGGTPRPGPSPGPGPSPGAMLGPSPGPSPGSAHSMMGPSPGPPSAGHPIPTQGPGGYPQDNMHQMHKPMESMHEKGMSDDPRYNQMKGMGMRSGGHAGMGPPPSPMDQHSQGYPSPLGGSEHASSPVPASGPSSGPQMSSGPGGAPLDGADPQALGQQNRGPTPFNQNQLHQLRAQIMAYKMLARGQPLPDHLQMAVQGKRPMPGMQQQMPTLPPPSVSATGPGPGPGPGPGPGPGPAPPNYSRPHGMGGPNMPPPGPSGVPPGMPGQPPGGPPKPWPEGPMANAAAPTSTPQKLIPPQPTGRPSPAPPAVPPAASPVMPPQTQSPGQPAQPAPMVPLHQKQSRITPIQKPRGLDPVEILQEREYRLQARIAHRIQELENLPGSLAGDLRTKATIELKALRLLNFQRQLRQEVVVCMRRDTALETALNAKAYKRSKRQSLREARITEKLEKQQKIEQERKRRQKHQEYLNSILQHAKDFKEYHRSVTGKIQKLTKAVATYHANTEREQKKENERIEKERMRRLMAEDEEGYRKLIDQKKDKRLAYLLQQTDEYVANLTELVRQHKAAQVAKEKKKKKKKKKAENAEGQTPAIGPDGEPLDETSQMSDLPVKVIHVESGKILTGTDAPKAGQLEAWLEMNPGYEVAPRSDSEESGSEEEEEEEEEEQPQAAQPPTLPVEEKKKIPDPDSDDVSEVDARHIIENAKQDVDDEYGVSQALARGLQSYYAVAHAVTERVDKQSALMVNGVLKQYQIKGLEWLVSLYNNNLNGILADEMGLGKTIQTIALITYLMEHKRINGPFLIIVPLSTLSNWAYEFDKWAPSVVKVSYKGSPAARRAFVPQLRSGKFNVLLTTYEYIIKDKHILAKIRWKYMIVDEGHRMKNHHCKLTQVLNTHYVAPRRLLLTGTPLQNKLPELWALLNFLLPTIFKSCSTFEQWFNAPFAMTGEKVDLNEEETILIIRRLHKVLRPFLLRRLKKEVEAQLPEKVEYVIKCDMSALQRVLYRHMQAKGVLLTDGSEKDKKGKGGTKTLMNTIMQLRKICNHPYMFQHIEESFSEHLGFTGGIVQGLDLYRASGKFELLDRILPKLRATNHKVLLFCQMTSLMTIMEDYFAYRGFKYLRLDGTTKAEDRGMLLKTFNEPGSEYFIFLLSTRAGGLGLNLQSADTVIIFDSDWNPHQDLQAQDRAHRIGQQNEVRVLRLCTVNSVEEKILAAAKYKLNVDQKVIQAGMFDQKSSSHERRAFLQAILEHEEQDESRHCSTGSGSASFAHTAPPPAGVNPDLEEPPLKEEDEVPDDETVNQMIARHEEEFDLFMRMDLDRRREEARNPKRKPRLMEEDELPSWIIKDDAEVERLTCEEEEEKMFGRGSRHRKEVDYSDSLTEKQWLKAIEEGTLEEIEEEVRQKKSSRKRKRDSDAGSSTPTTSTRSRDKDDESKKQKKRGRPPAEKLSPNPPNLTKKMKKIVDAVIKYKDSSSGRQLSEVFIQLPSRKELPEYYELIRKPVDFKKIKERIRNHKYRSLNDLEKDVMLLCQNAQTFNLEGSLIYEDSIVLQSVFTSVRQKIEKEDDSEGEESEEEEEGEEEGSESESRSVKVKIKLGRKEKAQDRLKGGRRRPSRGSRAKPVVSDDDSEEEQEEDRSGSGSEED
Method in brief: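 HeLa cells stably expressing HiBiT-BRG1 plus LgBiT were treated with 10-point 3-fold compound dilutions (top 30 μM final) for 24 h. Lytic Nano-Glo HiBiT luminescence was read. % degradation was normalised between DMSO (high control) and 2 μM of a reference BRM/BRG1 degrader (low control).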

T1 sequence (P51531 whole entry, the tested form may be a part): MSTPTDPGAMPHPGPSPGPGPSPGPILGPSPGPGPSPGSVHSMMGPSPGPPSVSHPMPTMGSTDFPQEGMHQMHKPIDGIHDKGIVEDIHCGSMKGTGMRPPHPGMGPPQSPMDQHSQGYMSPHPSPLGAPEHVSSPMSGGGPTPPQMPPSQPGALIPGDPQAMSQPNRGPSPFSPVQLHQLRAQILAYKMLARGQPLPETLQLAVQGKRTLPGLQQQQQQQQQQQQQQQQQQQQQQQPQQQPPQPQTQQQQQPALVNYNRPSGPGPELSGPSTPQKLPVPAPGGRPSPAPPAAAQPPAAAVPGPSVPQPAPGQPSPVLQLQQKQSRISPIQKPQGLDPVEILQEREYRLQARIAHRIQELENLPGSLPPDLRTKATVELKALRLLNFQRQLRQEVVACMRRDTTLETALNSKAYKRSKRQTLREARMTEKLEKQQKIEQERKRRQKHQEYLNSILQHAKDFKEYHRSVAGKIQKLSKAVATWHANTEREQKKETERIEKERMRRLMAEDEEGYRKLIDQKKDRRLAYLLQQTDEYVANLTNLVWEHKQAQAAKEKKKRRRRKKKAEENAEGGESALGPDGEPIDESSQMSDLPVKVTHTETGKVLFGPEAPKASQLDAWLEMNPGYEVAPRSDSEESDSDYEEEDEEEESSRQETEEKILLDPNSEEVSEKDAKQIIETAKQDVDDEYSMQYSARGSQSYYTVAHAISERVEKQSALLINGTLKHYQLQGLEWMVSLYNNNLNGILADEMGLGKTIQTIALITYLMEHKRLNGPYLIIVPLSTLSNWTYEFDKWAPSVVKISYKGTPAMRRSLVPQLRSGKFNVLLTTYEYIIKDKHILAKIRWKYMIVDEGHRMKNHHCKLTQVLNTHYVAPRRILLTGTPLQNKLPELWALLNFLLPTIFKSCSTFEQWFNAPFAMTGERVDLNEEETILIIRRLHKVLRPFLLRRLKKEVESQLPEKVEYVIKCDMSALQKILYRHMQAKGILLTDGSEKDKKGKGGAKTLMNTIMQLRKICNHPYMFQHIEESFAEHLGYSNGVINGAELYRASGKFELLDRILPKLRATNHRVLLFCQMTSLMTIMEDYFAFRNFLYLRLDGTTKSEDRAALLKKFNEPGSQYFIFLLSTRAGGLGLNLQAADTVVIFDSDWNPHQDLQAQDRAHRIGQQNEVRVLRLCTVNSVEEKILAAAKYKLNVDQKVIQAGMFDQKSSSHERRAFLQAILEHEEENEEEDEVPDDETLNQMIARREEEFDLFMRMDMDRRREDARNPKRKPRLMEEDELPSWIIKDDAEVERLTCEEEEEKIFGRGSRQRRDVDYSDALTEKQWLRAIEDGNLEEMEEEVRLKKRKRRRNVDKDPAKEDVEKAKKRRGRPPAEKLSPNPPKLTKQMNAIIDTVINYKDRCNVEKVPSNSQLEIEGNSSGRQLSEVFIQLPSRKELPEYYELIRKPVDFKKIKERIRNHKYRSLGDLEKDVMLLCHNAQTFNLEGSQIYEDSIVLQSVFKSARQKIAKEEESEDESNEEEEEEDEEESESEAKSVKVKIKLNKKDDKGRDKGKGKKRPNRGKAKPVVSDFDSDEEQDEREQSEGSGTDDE

| Structure (SMILES) | BRM HiBit Degradation Maximum (%) [1] | Dmax [2] [%] |
| --- | --- | --- |
| Nc1nnc(-c2ccccc2O)cc1OCC12CC(C(=O)NCCOCc3cccc(COCCOc4ccc5c(c4)C(=O)N(C4CCC(=O)NC4=O)C5=O)c3)(C1)C2 (stereo not shown) [Compound 84, 3-(((3-amino-6-(2-hydroxyphenyl)pyridazin-4-yl)oxy)methyl)-N-(2-((3-((2-((2-(2,6-dioxopiperidin-3-yl)-1,3-dioxoisoindolin-5-yl)oxy)ethoxy)methyl)benzyl)oxy)ethyl)bicyclo[1.1.1]pentane-1-carboxamide; formic acid] | C (“C” indicates maximum degradation < 50%) | < 50 |
| Cc1ncsc1-c1ccc(CNC(=O)[C@@H]2C[C@@H](O)CN2C(=O)[C@@H](NC(=O)CCCCCCCC(=O)NC23CC(CCOc4cc(-c5ccccc5O)nnc4N)(C2)C3)C(C)(C)C)cc1 [Compound 44, N1-(3-(2-((3-amino-6-(2-hydroxyphenyl)pyridazin-4-yl)oxy)ethyl)bicyclo[1.1.1]pentan-1-yl)-N9-((S)-1-((2S,4R)-4-hydroxy-2-((4-(4-methylthiazol-5-yl)benzyl)carbamoyl)pyrrolidin-1-yl)-3,3-dimethyl-1-oxobutan-2-yl)nonanediamide] | B (“B” indicates maximum degradation ≥ 50%) | < 50 |
| Nc1nnc(-c2ccccc2O)cc1OCC12CC(C(=O)NCCOc3cccc(OCCNc4ccc5c(c4)C(=O)N(C4CCC(=O)NC4=O)C5=O)c3)(C1)C2 (stereo not shown) [Compound 82, 3-(((3-amino-6-(2-hydroxyphenyl)pyridazin-4-yl)oxy)methyl)-N-(2-(3-(2-((2-(2,6-dioxopiperidin-3-yl)-1,3-dioxoisoindolin-5-yl)amino)ethoxy)phenoxy)ethyl)bicyclo[1.1.1]pentane-1-carboxamide] | C (“C” indicates maximum degradation < 50%) | < 50 |
| Nc1nnc(-c2ccccc2O)cc1OCCC12CC(NC(=O)C3CCN(CCOc4ccc5c(c4)C(=O)N(C4CCC(=O)NC4=O)C5=O)CC3)(C1)C2 (stereo not shown) [Compound 32, N-(3-(2-((3-amino-6-(2-hydroxyphenyl)pyridazin-4-yl)oxy)ethyl)bicyclo[1.1.1]pentan-1-yl)-1-(2-((2-(2,6-dioxopiperidin-3-yl)-1,3-dioxoisoindolin-5-yl)oxy)ethyl)piperidine-4-carboxamide] | B (“B” indicates maximum degradation ≥ 50%) | < 50 |
| Nc1nnc(-c2ccccc2O)cc1OCC12CC(CNC(=O)CCCCCCCOc3cccc4c3C(=O)N(C3CCC(=O)NC3=O)C4=O)(C1)C2 (stereo not shown) [Compound 5, N-[[3-([[3-amino-6-(2-hydroxyphenyl)pyridazin-4-yl]oxy]methyl)bicyclo[1.1.1]pentan-1-yl]methyl]-8-[[2-(2,6-dioxopiperidin-3-yl)-1,3-dioxoisoindol-4-yl]oxy]octanamide] | C (“C” indicates maximum degradation < 50%) | < 50 |
| Nc1nnc(-c2ccccc2O)cc1OCCC12CC(NC(=O)CCN3CCN(c4ccc5c(c4)C(=O)N(C4CCC(=O)NC4=O)C5=O)CC3)(C1)C2 (stereo not shown) [Compound 33, N-(3-(2-((3-amino-6-(2-hydroxyphenyl)pyridazin-4-yl)oxy)ethyl)bicyclo[1.1.1]pentan-1-yl)-3-(4-(2-(2,6-dioxopiperidin-3-yl)-1,3-dioxoisoindolin-5-yl)piperazin-1-yl)propanamide] | C (“C” indicates maximum degradation < 50%) | < 50 |
| Nc1nnc(-c2ccccc2O)cc1OCC12CC(CNC(=O)CCCCCCOc3cccc4c3C(=O)N(C3CCC(=O)NC3=O)C4=O)(C1)C2 (stereo not shown) [Compound 4, N-[[3-([[3-amino-6-(2-hydroxyphenyl)pyridazin-4-yl]oxy]methyl)bicyclo[1.1.1]pentan-1-yl]methyl]-7-[[2-(2,6-dioxopiperidin-3-yl)-1,3-dioxoisoindol-4-yl]oxy]heptanamide] | C (“C” indicates maximum degradation < 50%) | < 50 |
| Nc1nnc(-c2ccccc2O)cc1OCC12CC(C(=O)N3CCN(CC4CN(c5ccc6c(c5)C(=O)N(C5CCC(=O)NC5=O)C6=O)C4)CC3)(C1)C2 (stereo not shown) [Compound 102, 5-(3-((4-(3-(((3-amino-6-(2-hydroxyphenyl)pyridazin-4-yl)oxy)methyl)bicyclo[1.1.1]pentane-1-carbonyl)piperazin-1-yl)methyl)azetidin-1-yl)-2-(2,6-dioxopiperidin-3-yl)isoindoline-1,3-dione] | B (“B” indicates maximum degradation ≥ 50%) | < 50 |
| Nc1nnc(-c2ccccc2O)cc1OCC12CC(C(=O)NCCOCCOCCNc3ccc4c(c3)C(=O)N(C3CCC(=O)NC3=O)C4=O)(C1)C2 (stereo not shown) [Compound 66, 3-(((3-amino-6-(2-hydroxyphenyl)pyridazin-4-yl)oxy)methyl)-N-(2-(2-(2-((2-(2,6-dioxopiperidin-3-yl)-1,3-dioxoisoindolin-5-yl)amino)ethoxy)ethoxy)ethyl)bicyclo[1.1.1]pentane-1-carboxamide] | C (“C” indicates maximum degradation < 50%) | < 50 |
| Nc1nnc(-c2ccccc2O)cc1OCC12CC(C(=O)N3CCC(CCCCN4CCN(c5ccc6c(c5)C(=O)N(C5CCC(=O)NC5=O)C6=O)CC4)CC3)(C1)C2 (stereo not shown) [Compound 95, 5-(4-(4-(1-(3-(((3-amino-6-(2-hydroxyphenyl)pyridazin-4-yl)oxy)methyl)bicyclo[1.1.1]pentane-1-carbonyl)piperidin-4-yl)butyl)piperazin-1-yl)-2-(2,6-dioxopiperidin-3-yl)isoindoline-1,3-dione; formic acid] | B (“B” indicates maximum degradation ≥ 50%) | > 50 |
| Nc1nnc(-c2ccccc2O)cc1OCC12CC(CNC(=O)CCOCCOCCNc3cccc4c3C(=O)N(C3CCC(=O)NC3=O)C4=O)(C1)C2 (stereo not shown) [Compound 11, N-[[3-([[3-amino-6-(2-hydroxyphenyl)pyridazin-4-yl]oxy]methyl)bicyclo[1.1.1]pentan-1-yl]methyl]-3-[2-(2-[[2-(2,6-dioxopiperidin-3-yl)-1,3-dioxoisoindol-4-yl]amino]ethoxy)ethoxy]propanamide] | C (“C” indicates maximum degradation < 50%) | < 50 |
| Cc1ncsc1-c1ccc(CNC(=O)[C@@H]2C[C@@H](O)CN2C(=O)[C@@H](NC(=O)COCCOCCOCCOCC(=O)NCC23CC(COc4cc(-c5ccccc5O)nnc4N)(C2)C3)C(C)(C)C)cc1 [Compound 36, N1-((3-(((3-amino-6-(2-hydroxyphenyl)pyridazin-4-yl)oxy)methyl)bicyclo[1.1.1]pentan-1-yl)methyl)-N14-((S)-1-((2S,4R)-4-hydroxy-2-((4-(4-methylthiazol-5-yl)benzyl)carbamoyl)pyrrolidin-1-yl)-3,3-dimethyl-1-oxobutan-2-yl)-3,6,9,12-tetraoxatetradecanediamide] | C (“C” indicates maximum degradation < 50%) | < 50 |
| Nc1nnc(-c2ccccc2O)cc1OCC12CC(CNC(=O)CCOCCOCCNc3ccc4c(c3)C(=O)N(C3CCC(=O)NC3=O)C4=O)(C1)C2 (stereo not shown) [Compound 6, N-[[3-([[3-amino-6-(2-hydroxyphenyl)pyridazin-4-yl]oxy]methyl)bicyclo[1.1.1]pentan-1-yl]methyl]-3-[2-(2-[[2-(2,6-dioxopiperidin-3-yl)-1,3-dioxoisoindol-5-yl]amino]ethoxy)ethoxy]propanamide] | C (“C” indicates maximum degradation < 50%) | < 50 |
| Nc1nnc(-c2ccccc2O)cc1OCCC12CC(NC(=O)C3CC3CNC(=O)COc3cccc4c3C(=O)N(C3CCC(=O)NC3=O)C4=O)(C1)C2 (stereo not shown) [Compound 28, N-[3-(2-[[3-amino-6-(2-hydroxyphenyl)pyridazin-4-yl]oxy]ethyl)bicyclo[1.1.1]pentan-1-yl]-2-[(2-[[2-(2,6-dioxopiperidin-3-yl)-1,3-dioxoisoindol-4-yl]oxy]acetamido)methyl]cyclopropane-1-carboxamide] | C (“C” indicates maximum degradation < 50%) | < 50 |
| CN(CCNC(=O)COc1ccc2c(c1)C(=O)N(C1CCC(=O)NC1=O)C2=O)CCNC(=O)C12CC(COc3cc(-c4ccccc4O)nnc3N)(C1)C2 (stereo not shown) [Compound 76, 3-(((3-amino-6-(2-hydroxyphenyl)pyridazin-4-yl)oxy)methyl)-N-(2-((2-(2-((2-(2,6-dioxopiperidin-3-yl)-1,3-dioxoisoindolin-5-yl)oxy)acetamido)ethyl)(methyl)amino)ethyl)bicyclo[1.1.1]pentane-1-carboxamide] | C (“C” indicates maximum degradation < 50%) | < 50 |
| Nc1nnc(-c2ccccc2O)cc1OCC12CC(C(=O)N3CC(CN4CCN(c5ccc6c(c5)C(=O)N(C5CCC(=O)NC5=O)C6=O)CC4)C3)(C1)C2 (stereo not shown) [Compound 100, 5-(4-((1-(3-(((3-amino-6-(2-hydroxyphenyl)pyridazin-4-yl)oxy)methyl)bicyclo[1.1.1]pentane-1-carbonyl)azetidin-3-yl)methyl)piperazin-1-yl)-2-(2,6-dioxopiperidin-3-yl)isoindoline-1,3-dione; formic acid] | C (“C” indicates maximum degradation < 50%) | < 50 |
| Nc1nnc(-c2ccccc2O)cc1OCC12CC(C(=O)NCCOCCOCCNC(=O)COc3ccc4c(c3)C(=O)N(C3CCC(=O)NC3=O)C4=O)(C1)C2 (stereo not shown) [Compound 91, 3-(((3-amino-6-(2-hydroxyphenyl)pyridazin-4-yl)oxy)methyl)-N-(2-(2-(2-(2-((2-(2,6-dioxopiperidin-3-yl)-1,3-dioxoisoindolin-5-yl)oxy)acetamido)ethoxy)ethoxy)ethyl)bicyclo[1.1.1]pentane-1-carboxamide] | C (“C” indicates maximum degradation < 50%) | < 50 |
